Assay results published in patent US20240108685A1, “ORAL LIPOSOMAL COMPOSITIONS” (priority 2021, published 2024).

Test system: 4T-1 cells of mammary cancer
Assay: Orthotopic 4T1 breast cancer model, lung metastases
Format: in vivo, BALB/c mice
Details: after 3 weeks
From the text: The objective of this study was to evaluate the capacity of a suspension of liposomal MTP-PE, prepared according to the invention and administered orally, to inhibit the development of pulmonary metastases from cancer of the mammary gland.
The experimental model consisted of using immunocompetent mice of the BALB/c strain and performing an orthotopic transplant of 4T-1 cells of mammary cancer of murine origin.
This orthotopic graft forms a tumor reproducing human breast cancer which disseminates and forms metastases in the lungs after 3 weeks.
Suspensions of liposomes were prepared according to the method indicated in example 1.
4T1 tumors were induced on day zero (DO) orthotopically in 60 BALB/c female mice under anesthesia.
A total of 300,000 4T1 tumor cells were slowly injected into the right thoracic breast tissue.
Animals were randomized by tumor size on Day 9 into six groups of ten animals each […]. Homogeneity of tumor sizes between groups was tested by analysis of variance (ANOVA).
The animals of Groups 1, 2 and 3 were treated respectively with Batch H3 (control), Batch G3 and Batch G3 twice a week orally.
Additionally, animals in Groups 2 and 4 were treated with intravenous injections of doxorubicin at 8 mg/kg once weekly for 3 weeks. […] The number of lung metastases was counted using a binocular loupe.

## COc1cccc2c1C(=O)c1c(O)c3c(c(O)c1C2=O)C[C@@](O)(C(=O)CO)C[C@@H]3O[C@H]1C[C@H](N)[C@H](O)[C@H](C)O1 [doxorubicin]
  Effect on lung metastases (in words): did not show significant efficacy
